Source: patent publication US20100210558A1, “MINIGASTRIN AS A THERAPEUTIC AGENT” (priority 2007, published 2010)
Where no end group is shown, it is not given here.

Key:
[1] = system: HCMV strain AD169; assay: HCMV plaque reduction assay; format: cell-based; details: HCMV AD169 in MRC-5 cells; peptide 10 micrograms per ml; 7-10 days
Text: (§1) Cells were split twice a week 1:2.
Ganciclovir was used as positive control.

[2] = Cytotoxicity in HCMV assay (CellTiter 96 cell viability); format: cell-based; details: human, MRC-5 cells (embryonal lung fibroblasts), 6 days incubation
Text: as §1

[3] = system: MRSA; assay: Methicillin Resistant Staphylococcus Aureus (MRSA) assay; format: cell-based; details: peptide 10 micrograms per ml, visual reading of growth
[4] = system: Pseudomonas aeruginosa; assay: Pseudomonas aeruginosa assay; format: cell-based; details: peptide 10 micrograms per ml, visual reading of growth
[5] = system: Streptococcus pneumoniae; assay: Streptococcus pneumoniae assay; format: cell-based; details: peptide 10 micrograms per ml, visual reading of growth
[6] = system: A549 cells; assay: Propidium iodide cell cycle assay; format: cell-based, human; details: peptide 10 micrograms per ml, 24 hours, FACS
[7] = system: Human Peripheral Blood Mononuclear Cells (PBMC); assay: T cell proliferation assay (PHA, 3H-thymidine); format: cell-based; details: peptide 10 micrograms per ml, 3 days
[8] = system: Human Peripheral Blood Mononuclear Cells (PBMC); assay: B cell proliferation assay (SAC plus Interleukin-2, 3H-thymidine); format: cell-based; details: peptide 10 micrograms per ml, 3 days
[9] = system: RAW 264.7 cells; assay: Phagocytosis assay (Fluorescein-labeled Escherichia coli); format: cell-based, mouse; details: peptide 10 micrograms per ml, Fluorescein-labeled E. coli, flow cytometry
[10] = system: spleen cells (IL-2, IL-4, IL-5, IFN-γ, TNF-α protein levels); assay: Th1/Th2 cytokine profiling assay; format: cell-based, Balb/c mice; details: Ovalbumin-restimulated Balb/c spleen cells; peptide 10 micrograms per ml; 72 hours
[11] = system: TNF alpha production; assay: TNF alpha production assay (LPS-stimulated macrophages, ELISA); format: cell-based; details: human macrophages, peptide 10 micrograms per ml, lipopolysaccharide 200 ng/ml, overnight
[12] = system: Primary Human endothelial cells (HUVEC); assay: Endothelial cell migration assay; format: cell-based; details: peptide 10 micrograms per ml, 22 hours
[13] = system: HUVEC; assay: Endothelial tube formation assay; format: cell-based, human; details: peptide 10 micrograms per ml, 20 hours
Text: Positive control was vehicle only.

[14] = in vitro; details: human
[15] = Cytotoxicity in HIV-1 assay (MTS cell viability); details: human
[16] = system: hepatitis B virus (HBV) ayw strain; assay: HBV replication assay (secreted HBV DNA, TaqMan PCR); details: HepG2-2.2.15 cells; peptide 10 micrograms per ml; six days; HBV DNA in supernatant

For LEEEEEAYGWMDF-NH2 [Minigastrin I], the “% plaque reduction” value [1] was 1.4%, the viability at 144 h [2] was 100% and the “% inhibition” value [3] was 0.0%. For the same substance, the “% inhibition” value [4] was 0.0%, the “% inhibition” value [5] was 0.0% and the “Cell cycle analysis G0/G1” value [6] was 57.1. The “Cell cycle analysis G2/M” value [6] was 10.3, the “Cell cycle analysis S” value [6] was 32.6 and the “% of PHA induced control” value [7] was 101.1%. The “% of SAC/IL2 induced control” value [8] was 78.4%, the “% of control phagocytosis” value [9] was 145.7% and the “IFNγ spleen cells; TH1 response (% of control)” value [10] was 79.5 % of control. The “IL-2 spleen cells (% of control)” value [10] was 149.2 % of control, the “IL-4 spleen cells; TH2 response (% of control)” value [10] was 106.6 % of control and the “IL-5 spleen cells; TH2 response (% of control)” value [10] was 66.5 % of control. For the same substance, the “TNF-a spleen cells; TH1 response (% of control)” value [10] was 99.0 % of control, the “% of LPS induction” value [11] was 79.0% and the “% inhibition of migration” value [12] was −3%. For the same substance, the “% inhibition of tube formation” value [13] was 36%, the viability at 144 h, 10 micrograms per ml [14] was 9.5% and the viability at 10 micrograms per ml [15] was 100%. The “% inhibition of HBV replication in HEP G2 cells” value [16] was 49.9%.
